Laboratory results as given in paper PMC5035034, “Carbohydrate-Binding Non-Peptidic Pradimicins for the Treatment of Acute Sleeping Sickness in Murine Models” (PLoS Pathogens, 2016).

Target: T1, VSG221 (variant surface glycoprotein 221, MITat 1.2) (Trypanosoma brucei, UniProt P26332)
T1 construct: soluble form VSG (sVSG) purified from parental bloodstream forms, N-glycosylated (Asn263, Asn428)
Experiment: SPR (Biacore T200) on immobilized VSG221, […]; supported by HHA-FITC and CV-N-FITC competition on live parasites
Format: binding

## CN[C@@H]1[C@H](O[C@@H]2O[C@H](CO)[C@@H](O)[C@H](OS(=O)(=O)O)[C@H]2O)[C@@H](O)[C@H](O[C@H]2c3cc(C)c(C(=O)N[C@H](C)C(=O)O)c(O)c3-c3c(cc4c(c3O)C(=O)c3cc(OC)cc(O)c3C4=O)[C@@H]2O)O[C@@H]1C [PRM-S, pradimicin S]
  SPR (Biacore T200) on immobilized VSG221, 1.56 to 50 uM; supported by HHA-FITC a: A significant concentration-dependent binding to the parental Tb BSF VSG221-bound sensorchip was observed
